Where a name gives a salt, the structure may show the parent alone.
What was measured:
[1] = tested on: high-sugar and high-fat food CPP; test: High-sugar and high-fat food CPP after environmental or unconditioned re-exposure, intraperitoneal administration; conditions: rats
morphine CPP [2] = test: Formation of morphine conditioned place preference (CPP) in mice; assay type: in vivo; conditions: imatinib mesylate 45 mg/kg i.p. 30 min before morphine 15 mg/kg s.c., test day 10
c-Kit [3] = target: T1, c-Kit (Rattus norvegicus, UniProt F7EWK5); assay type: in vivo; conditions: rats, imatinib mesylate 30 mg/kg i.p. 30 min before morphine or saline
T1 construct: from tissue; host or cells: rat brain (nucleus accumbens, prefrontal cortex, hippocampus and other regions)
T1 sequence (F7EWK5 26-978): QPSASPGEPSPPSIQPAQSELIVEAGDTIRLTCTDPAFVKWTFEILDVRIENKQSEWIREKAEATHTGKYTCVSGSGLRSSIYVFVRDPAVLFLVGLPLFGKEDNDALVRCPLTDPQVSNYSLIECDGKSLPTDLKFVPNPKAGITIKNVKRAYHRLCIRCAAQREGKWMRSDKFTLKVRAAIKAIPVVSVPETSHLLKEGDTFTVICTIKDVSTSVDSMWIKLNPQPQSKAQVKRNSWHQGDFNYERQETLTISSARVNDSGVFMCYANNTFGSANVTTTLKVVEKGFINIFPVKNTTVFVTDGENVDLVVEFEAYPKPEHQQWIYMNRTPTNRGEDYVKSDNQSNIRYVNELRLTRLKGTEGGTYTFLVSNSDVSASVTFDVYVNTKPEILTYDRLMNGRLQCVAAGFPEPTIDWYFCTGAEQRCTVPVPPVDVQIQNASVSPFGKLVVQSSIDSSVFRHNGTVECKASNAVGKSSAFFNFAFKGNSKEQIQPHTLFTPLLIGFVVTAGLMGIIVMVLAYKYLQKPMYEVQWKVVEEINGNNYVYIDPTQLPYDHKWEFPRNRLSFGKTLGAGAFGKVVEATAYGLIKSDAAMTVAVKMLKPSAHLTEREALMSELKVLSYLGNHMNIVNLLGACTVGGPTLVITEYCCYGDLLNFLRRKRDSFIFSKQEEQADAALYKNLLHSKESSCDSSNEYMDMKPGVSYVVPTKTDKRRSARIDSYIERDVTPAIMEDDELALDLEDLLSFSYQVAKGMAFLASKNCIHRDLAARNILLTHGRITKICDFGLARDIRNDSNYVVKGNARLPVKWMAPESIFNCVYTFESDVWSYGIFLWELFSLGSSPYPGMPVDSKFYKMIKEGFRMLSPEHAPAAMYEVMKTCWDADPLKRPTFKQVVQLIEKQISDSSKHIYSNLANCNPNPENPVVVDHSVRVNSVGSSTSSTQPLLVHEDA
Experimental: (§1) After 1 h, anesthesia and perfusion were performed, a brain tissue was fixed with a 4% paraformaldehyde solution, dehydrated in alcohol solutions with different concentrations, hyalinized in xylene, embedded in paraffin, and then cut into 3 μm-thick sections. Tissues were deparaffinized, boiled in 0.01M sodium citrate buffer (pH 6.0) for 10-15 min, and cooled in cold water to room temperature.

[4] = tested on: high-sugar and high-fat food CPP; test: Formation of conditioned place preference on high-sugar and high-fat food in rats; assay type: in vivo, rat; conditions: imatinib mesylate 1, 5, 10, 20 and 30 mg/kg i.p.
gambling behavior [5] = test: Rat gambling behavior model (rGT), Example 9; assay type: in vivo; conditions: rats, imatinib mesylate 30 mg/kg
Experimental: A gambling behavior model of rats was established: animals were first accustomed to the operating chambers twice a day for 30 min each time, during which sucrose granules were placed on the reaction wells and the food banks. Animals were then trained to poke their noses into one of the luminescent reaction wells within 10 s to obtain a reward. Space positions of the stimulus light were varied in different experiments of wells 1, 2, 4 and 5. Each session consisted of 100 trials lasting approximately 30 min. After 5 trials, animals continued to complete 100 trials. Animals were then trained 7 times for forced-choice rGT (or an rGT variant of the control group), followed by a completely free-choice task, ensuring that all animals had the same experience in the four reinforcement conditions and were designed to prevent simple prejudice against specific wells. The percentage of animals selected for a particular option trial was calculated according to the formula […].

gambling behavior [6] = test: Dose effect on gambling behavior in rats under gambling task (rGT) conditions; assay type: in vivo, rat
Experimental: A gambling behavior model of rats was established: firstly, the animals were acclimated to the operating chamber twice a day for 30 min each time, during which sucrose granules were placed on the reaction wells and the food bank. After acclimation, animals were trained to poke their noses into one of the luminescent reaction wells within 10 s to obtain a reward. Spatial positions of the stimulus light would appear in different wells of wells 1, 2, 4 and 5 in different experiments. Each session consisted of 100 trials lasting approximately 30 min. Animals were then trained 7 times for forced-choice rGT (or an rGT variant of the control group), and then underwent a completely free-choice task. This ensured that all animals had the same experience under the four reinforcement conditions and were designed to prevent simple prejudice against specific wells. The percentage of trials in which animals chose a particular option was calculated according to the formula in reference: Choices of a particular option/Total choices of 100 (Di C P, Manvich D F, Pushparaj A, et al. Effects of disulfiram on choice behavior in a rodent gambling task: association with catecholamine levels[J]. Psychopharmacology, 2018, 235(1):23-35). Each experiment lasted 30 min and experimental subjects responded with a nose poke on the illuminated food bank, which turned off the tray light and triggered the initiation of a 5-s intertrial interval (ITT). At the end of the ITI, wells 1, 2, 4 and 5 were illuminated for 10 s (in the forced-choice version of the task used in the training, only one well was illuminated).
Explanation to the above table: four wells in the experimental apparatus were respectively provided with different reward probability and penalty probability, as well as corresponding reward sucrose amount and penalty time.
After training, the rats were given with drugs. […] The rats in the direct administration group were directly given with imatinib (1, 5, 10, 20 and 30 mg/kg, ip) or saline (1 mL/kg, ip) without being placed in the experimental device. […]

c-Kit [7] = target: T1, c-Kit; assay type: in vivo; conditions: gambling rats, imatinib mesylate 30 mg/kg
morphine CPP [8] = conditions: mice
[9] = tested on: high-sugar and high-fat food CPP; test: High-sugar and high-fat food CPP after environmental or unconditioned re-exposure, nucleus accumbens microinjection; assay type: in vivo, rat; conditions: rats
c-Kit [10] = assay type: in vivo, rat; conditions: rats, 1 h after acute morphine 10 mg/kg s.c., compared with normal rats
Experimental: as §1

c-Kit [11] = assay type: in vivo, rat
Experimental: Under the guidance of NIR-II fluorescence imaging, dynamic changes of the brain regions of the rats were dynamically monitored and photographed at 2 h, 6 h, 8 h and 12 h with a near-infrared II region imaging camera, respectively, so as to indicate changes in a phosphorylation level of c-Kit protein.

[12] = rats exposed to the environment, 10, 20 and 30 mg/kg ip, compared to control group

SMILES	ignition of CPP ([1]; i.p. administration, small amount of high-sugar and high-fat food, after 2 weeks)	food-seeking behaviors induced by environment and food ([1]; imatinib mesylate 1, 5, 10, 20 and 30 mg/kg i.p. after re-exposure)	formation of conditioned place preference (CPP score) (morphine CPP [2])	phosphorylation activity of c-Kit protein in nucleus accumbens, prefrontal cortex and hippocampus (c-Kit [3])	formation of conditioned place preference on high-sugar and high-fat food [4]	gambling behavior (gambling behavior [5])	effect on gambling choice in rGT (gambling behavior [6]; rats as directly administered, any dose (1-30 mg/kg ip))	choice at P4 in rGT (gambling behavior [6]; [12])	optimal choice at P2 in rGT (gambling behavior [6]; [12])	phosphorylation level of c-Kit (c-Kit [7])	CPP Score after re-exposure to environmental cues (morphine CPP [8]; imatinib mesylate 45 mg/kg i.p. 30 min before re-exposure)	ignition of morphine CPP (morphine CPP [8]; small dose of morphine 5 mg/kg i.p., after 1 week)	food-seeking behavior caused by the environment and food ([9]; nucleus accumbens microinjection 4 μg/0.5 μL)	ignition of CPP ([9]; nucleus accumbens microinjection, after 2 weeks)	phosphorylation level of c-Kit protein in nucleus accumbens regions (c-Kit [10])	phosphorylation level of c-Kit protein in prefrontal cortex, hippocampus and other regions (c-Kit [10])	time at which enrichment intensity of the probes reached a peak (c-Kit [11]; rats after acute morphine administration) [h]	phosphorylation activity of c-Kit in the brains of the rats (brain brightness) (c-Kit [11]; rats, acute morphine 10 mg/kg s.c., contrast with normal saline group)
Cc1ccc(NC(=O)c2ccc(CN3CCN(C)CC3)cc2)cc1Nc1nccc(-c2cccnc2)n1 [imatinib mesylate]	not ignited	inhibited	could not be formed normally	significantly decreased	inhibited	significantly eliminated	no significant effect	reduced	significantly increased	significantly inhibited	significantly reduced	not ignited	inhibited	not ignited				
CN1CC[C@]23c4c5ccc(O)c4O[C@H]2[C@@H](O)C=C[C@H]3[C@H]1C5 [morphine]															significantly increased	no significant change	6	significantly enhance
